Source: PubChem BioAssay (NCI)
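Grown in 96-well plates, cells were treated for 48 hours with each compound at five concentrations. Insufficient inhibition: endpoint recorded as highest concentration tested. GI50 is the concentration that inhibits growth by half. TGI denotes the concentration required for complete inhibition of growth.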

Columns and labels:
Test in all cases: DTP human tumour cell line panel, 48 h
786-0 renal = test system: 786-0 renal
A498 renal = test system: A498 renal
A549 NSCLC = test system: A549 NSCLC
ACHN renal = test system: ACHN renal
BT-549 breast = test system: BT-549 breast
CAKI-1 renal = test system: CAKI-1 renal
CCRF-CEM leukemia = test system: CCRF-CEM leukemia
COLO 205 colon = test system: COLO 205 colon
DU-145 prostate = test system: DU-145 prostate
EKVX NSCLC = test system: EKVX NSCLC
HCC-2998 colon = test system: HCC-2998 colon
HCT-116 colon = test system: HCT-116 colon
HCT-15 colon = test system: HCT-15 colon
HL-60(TB) leukemia = test system: HL-60(TB) leukemia
HOP-62 NSCLC = test system: HOP-62 NSCLC
HOP-92 NSCLC = test system: HOP-92 NSCLC
HS 578T breast = test system: HS 578T breast
HT29 colon = test system: HT29 colon
IGROV1 ovarian = test system: IGROV1 ovarian
K-562 leukemia = test system: K-562 leukemia
KM12 colon = test system: KM12 colon
LOX IMVI melanoma = test system: LOX IMVI melanoma
M14 melanoma = test system: M14 melanoma
MALME-3M melanoma = test system: MALME-3M melanoma
MCF7 breast = test system: MCF7 breast
MDA-MB-231 breast = test system: MDA-MB-231 breast
MDA-MB-435 = test system: MDA-MB-435
MOLT-4 leukemia = test system: MOLT-4 leukemia
NCI-H226 lung = test system: NCI-H226 lung
NCI-H23 lung = test system: NCI-H23 lung
NCI-H460 lung = test system: NCI-H460 lung
NCI/ADR-RES ovarian = test system: NCI/ADR-RES ovarian
OVCAR-3 ovarian = test system: OVCAR-3 ovarian
OVCAR-4 ovarian = test system: OVCAR-4 ovarian
OVCAR-5 ovarian = test system: OVCAR-5 ovarian
OVCAR-8 ovarian = test system: OVCAR-8 ovarian
PC-3 prostate = test system: PC-3 prostate
RPMI-8226 leukemia = test system: RPMI-8226 leukemia
RXF 393 renal = test system: RXF 393 renal
SF-268 CNS = test system: SF-268 CNS
SF-295 CNS = test system: SF-295 CNS
SF-539 CNS = test system: SF-539 CNS
SK-MEL-2 melanoma = test system: SK-MEL-2 melanoma
SK-MEL-28 melanoma = test system: SK-MEL-28 melanoma
SK-MEL-5 melanoma = test system: SK-MEL-5 melanoma
SK-OV-3 ovarian = test system: SK-OV-3 ovarian
SNB-19 CNS = test system: SNB-19 CNS
SNB-75 CNS = test system: SNB-75 CNS
SR leukemia = test system: SR leukemia
SW-620 colon = test system: SW-620 colon
T-47D breast = test system: T-47D breast
TK-10 renal = test system: TK-10 renal
UACC-257 melanoma = test system: UACC-257 melanoma
UACC-62 melanoma = test system: UACC-62 melanoma
UO-31 renal = test system: UO-31 renal
NCI-H522 lung = test system: NCI-H522 lung
SN12C renal = test system: SN12C renal
U251 CNS = test system: U251 CNS

Cn1c(-c2cccc(N)c2)[n+](C)c2ccccc21
TGI (786-0 renal): > 100 µM | TGI (A498 renal): > 100 µM | TGI (A549 NSCLC): > 100 µM | TGI (ACHN renal): > 100 µM | TGI (BT-549 breast): > 100 µM | TGI (CAKI-1 renal): > 100 µM | TGI (CCRF-CEM leukemia): > 100 µM | TGI (COLO 205 colon): > 100 µM | TGI (DU-145 prostate): > 100 µM | TGI (EKVX NSCLC): > 100 µM | TGI (HCC-2998 colon): > 100 µM | TGI (HCT-116 colon): > 100 µM | TGI (HCT-15 colon): > 100 µM | TGI (HL-60(TB) leukemia): > 100 µM | TGI (HOP-62 NSCLC): > 100 µM | TGI (HOP-92 NSCLC): > 100 µM | TGI (HS 578T breast): > 100 µM | TGI (HT29 colon): > 100 µM | TGI (IGROV1 ovarian): > 100 µM | TGI (K-562 leukemia): > 100 µM | TGI (KM12 colon): > 100 µM | TGI (LOX IMVI melanoma): > 100 µM | TGI (M14 melanoma): > 100 µM | TGI (MALME-3M melanoma): > 100 µM | TGI (MCF7 breast): > 100 µM | TGI (MDA-MB-231 breast): > 100 µM | TGI (MDA-MB-435): > 100 µM | TGI (MOLT-4 leukemia): > 100 µM | TGI (NCI-H226 lung): > 100 µM | TGI (NCI-H23 lung): > 100 µM | TGI (NCI-H460 lung): > 100 µM | TGI (NCI/ADR-RES ovarian): > 100 µM | TGI (OVCAR-3 ovarian): > 100 µM | TGI (OVCAR-4 ovarian): > 100 µM | TGI (OVCAR-5 ovarian): > 100 µM | TGI (OVCAR-8 ovarian): > 100 µM | TGI (PC-3 prostate): > 100 µM | TGI (RPMI-8226 leukemia): > 100 µM | TGI (RXF 393 renal): > 100 µM | TGI (SF-268 CNS): > 100 µM | TGI (SF-295 CNS): > 100 µM | TGI (SF-539 CNS): > 100 µM | TGI (SK-MEL-2 melanoma): > 100 µM | TGI (SK-MEL-28 melanoma): > 100 µM | TGI (SK-MEL-5 melanoma): > 100 µM | TGI (SK-OV-3 ovarian): > 100 µM | TGI (SNB-19 CNS): > 100 µM | TGI (SNB-75 CNS): > 100 µM | TGI (SR leukemia): > 100 µM | TGI (SW-620 colon): > 100 µM | TGI (T-47D breast): > 100 µM | TGI (TK-10 renal): > 100 µM | TGI (UACC-257 melanoma): > 100 µM | TGI (UACC-62 melanoma): > 100 µM | TGI (UO-31 renal): > 100 µM

CC(C)N(Cc1c(F)cccc1F)c1ccc(CO)c(Cl)c1
GI50 (786-0 renal): 13.7 µM | TGI (786-0 renal): 29.6 µM | GI50 (A498 renal): 0.0488 µM | TGI (A498 renal): 0.148 µM | GI50 (A549 NSCLC): 0.643 µM | TGI (A549 NSCLC): 13.4 µM | GI50 (ACHN renal): 15.3 µM | TGI (ACHN renal): 29.9 µM | GI50 (BT-549 breast): 18.7 µM | TGI (BT-549 breast): 34.3 µM | GI50 (CAKI-1 renal): 1.25 µM | TGI (CAKI-1 renal): 15 µM | GI50 (CCRF-CEM leukemia): 17.8 µM | TGI (CCRF-CEM leukemia): 40.2 µM | GI50 (COLO 205 colon): 1.02 µM | TGI (COLO 205 colon): 3.02 µM | GI50 (DU-145 prostate): 12.2 µM | TGI (DU-145 prostate): 27.3 µM | GI50 (HCC-2998 colon): 2.06 µM | TGI (HCC-2998 colon): 13.8 µM | GI50 (HCT-116 colon): 0.0408 µM | TGI (HCT-116 colon): 12.4 µM | GI50 (HCT-15 colon): 11.7 µM | TGI (HCT-15 colon): 29.1 µM | GI50 (HL-60(TB) leukemia): 3.92 µM | TGI (HL-60(TB) leukemia): 34.5 µM | GI50 (HOP-62 NSCLC): 0.553 µM | TGI (HOP-62 NSCLC): 19.6 µM | GI50 (HOP-92 NSCLC): 0.111 µM | TGI (HOP-92 NSCLC): 1.73 µM | GI50 (HS 578T breast): 17.7 µM | TGI (HS 578T breast): 40.8 µM | GI50 (HT29 colon): 2.62 µM | TGI (HT29 colon): 17.5 µM | GI50 (IGROV1 ovarian): 0.0424 µM | TGI (IGROV1 ovarian): 0.186 µM | GI50 (K-562 leukemia): 0.354 µM | TGI (K-562 leukemia): 17.9 µM | GI50 (KM12 colon): 15.8 µM | TGI (KM12 colon): 33.1 µM | GI50 (LOX IMVI melanoma): 18.5 µM | TGI (LOX IMVI melanoma): 34.7 µM | GI50 (M14 melanoma): 19.1 µM | TGI (M14 melanoma): 37.7 µM | GI50 (MALME-3M melanoma): 17.5 µM | TGI (MALME-3M melanoma): 33.6 µM | GI50 (MCF7 breast): 0.0655 µM | TGI (MCF7 breast): 13.6 µM | GI50 (MDA-MB-231 breast): 15.3 µM | TGI (MDA-MB-231 breast): 35.8 µM | GI50 (MDA-MB-435): 17.3 µM | TGI (MDA-MB-435): 34.6 µM | GI50 (MOLT-4 leukemia): 19.5 µM | TGI (MOLT-4 leukemia): 46 µM | GI50 (NCI-H226 lung): 0.0727 µM | TGI (NCI-H226 lung): 0.215 µM | GI50 (NCI-H23 lung): 14 µM | TGI (NCI-H23 lung): 32.4 µM | GI50 (NCI-H460 lung): 0.134 µM | TGI (NCI-H460 lung): 2.63 µM | GI50 (NCI-H522 lung): 18 µM | TGI (NCI-H522 lung): 35.2 µM | GI50 (NCI/ADR-RES ovarian): 10.9 µM | TGI (NCI/ADR-RES ovarian): 27.9 µM | GI50 (OVCAR-3 ovarian): 0.171 µM | TGI (OVCAR-3 ovarian): 0.565 µM | GI50 (OVCAR-4 ovarian): 0.119 µM | TGI (OVCAR-4 ovarian): 0.832 µM | GI50 (OVCAR-5 ovarian): 0.0702 µM | TGI (OVCAR-5 ovarian): 0.253 µM | GI50 (OVCAR-8 ovarian): 6.65 µM | TGI (OVCAR-8 ovarian): 24.7 µM | GI50 (PC-3 prostate): 12.1 µM | TGI (PC-3 prostate): 26.1 µM | GI50 (RPMI-8226 leukemia): 0.529 µM | TGI (RPMI-8226 leukemia): 27.5 µM | GI50 (RXF 393 renal): 1.63 µM | TGI (RXF 393 renal): 20.6 µM | GI50 (SF-268 CNS): 18.3 µM | TGI (SF-268 CNS): 34.9 µM | GI50 (SF-295 CNS): 0.157 µM | TGI (SF-295 CNS): 2.53 µM | GI50 (SF-539 CNS): 16.8 µM | TGI (SF-539 CNS): 31.8 µM | GI50 (SK-MEL-2 melanoma): 0.848 µM | TGI (SK-MEL-2 melanoma): 21.7 µM | GI50 (SK-MEL-28 melanoma): 13 µM | TGI (SK-MEL-28 melanoma): 26.6 µM | GI50 (SK-MEL-5 melanoma): 12.7 µM | TGI (SK-MEL-5 melanoma): 25.6 µM | GI50 (SK-OV-3 ovarian): 2.64 µM | TGI (SK-OV-3 ovarian): 12.9 µM | GI50 (SN12C renal): 12.1 µM | TGI (SN12C renal): 25.7 µM | GI50 (SNB-19 CNS): 19.1 µM | TGI (SNB-19 CNS): > 52.3 µM | GI50 (SNB-75 CNS): 13 µM | TGI (SNB-75 CNS): 26.6 µM | GI50 (SR leukemia): 19.4 µM | TGI (SR leukemia): 46.6 µM | GI50 (SW-620 colon): 0.355 µM | TGI (SW-620 colon): 18.3 µM | GI50 (T-47D breast): 0.0502 µM | TGI (T-47D breast): 0.216 µM | GI50 (TK-10 renal): 0.0326 µM | TGI (TK-10 renal): 0.145 µM | GI50 (U251 CNS): 0.228 µM | TGI (U251 CNS): 17.3 µM | GI50 (UACC-257 melanoma): 0.0582 µM | TGI (UACC-257 melanoma): 0.195 µM | GI50 (UACC-62 melanoma): 0.0748 µM | TGI (UACC-62 melanoma): 0.398 µM | GI50 (UO-31 renal): 3.14 µM | TGI (UO-31 renal): 25 µM
